Measurements taken from patent US8192962B2, “Processes for detecting toxic substances” (Daikin Industries, Ltd., priority 2001, dated 2012).

Test system: Transport facilitation protein genes
Assay: DNA chip mRNA expression in yeast, transport facilitation protein genes (Table 5)
Format: cell-based, Saccharomyces cerevisiae S288C
Method: Yeast (Saccharomyces cerevisiae S288C (α SUC2mal mel gap2 CUP1)) were incubated at 25° C. on YPD medium (yeast extract 1%, polypepton 2%, glucose 2%). One of toxic chemical substances was added to the cells at logarithmic growth phase, and the cells were further incubated for two hours. Cells were cultured without any chemical substance in the same condition, and were used as control. Concentrations of the chemical substances were defined to inhibit the growth of the yeast but not lead to death.
After completion of the incubation, the culture was centrifuged to collect the cells. To the cells, sodium acetate buffer (50 mM sodium acetate, 10 mM EDTA, 1% SDS) was added, and the mixture was shaken at 65° C. for five minutes, followed by returning to room temperature, and obtaining the supernatant, of which the procedures were repeated two times. To the supernatant, ½ amount of a solution of phenol/chloroform was added, and the mixture was centrifuged to give a supernatant, which was added with an equal amount of chloroform, and the mixture was centrifuged to give a supernatant. To the supernatant, an equal amount of isopropanol containing 0.3 M sodium acetate was added, and the mixture was allowed to stand at room temperature for 30 minutes, after which the mixture was centrifuged to give a sediment of the whole RNAs. Seventy % ethanol was added to the sediment, and the mixture was again centrifuged to give a sediment, which was then dried and dissolved in water. mRNA was isolated from the whole RNAs as followings. In view of the fact that a poly A chain is attached to the 3′ terminus of mRNA, a polynucleotide having a poly T structure which was immobilized on the surface of latex beads was used to trap the mRNA, and then the mRNA was washed and eluted with spine column (Oligotex-dT30<Super>mRNA Purification Kit, Takara). Reverse transcription of the mRNA was conducted with a reverse transcriptase (Super Script II Reverse Transcriptase; catalogue No. 18064-014, GibcoBRL) using fluorescence-labeled nucleotides to give cDNAs that were introduced with Cy3-dUTP or Cy5-dUTP during the reverse transcription.
The labeled cDNAs were dissolved in TE buffer (10mM Tris-HCl/1 mM EDTA, pH8.0), and the solution was dropped on the DNA chip containing the whole genes of yeast (DNA Chip Research Inc. Japan) so that the cDNAs were hybridized on the DNA chip at 65° C. for over 12 hours. The fluoresces intensity of the DNA chip was read with a scanner, and the ratio relative to the fluorescence intensity resulting from the absence of chemical substance was estimated as the following, which is shown in Tables 1 to 9: […]

CCCCCCCCCCCCc1ccc(S(=O)(=O)[O-])cc1.[Na+] [(17), sodium dodecylbenzosulfonate]
The level of expressed mRNA in the presence of chemical substance/The level of expressed mRNA in the absence of chemical substance (yeast gene YGR224W): 2.8
The level of expressed mRNA in the presence of chemical substance/The level of expressed mRNA in the absence of chemical substance (yeast gene YGR260W): 0.9
The level of expressed mRNA in the presence of chemical substance/The level of expressed mRNA in the absence of chemical substance (yeast gene YGR281W): 2.8
The level of expressed mRNA in the presence of chemical substance/The level of expressed mRNA in the absence of chemical substance (yeast gene YHL035C): 1.1
The level of expressed mRNA in the presence of chemical substance/The level of expressed mRNA in the absence of chemical substance (yeast gene YHL040C): 1.4
The level of expressed mRNA in the presence of chemical substance/The level of expressed mRNA in the absence of chemical substance (yeast gene YHL047C): 1.2
The level of expressed mRNA in the presence of chemical substance/The level of expressed mRNA in the absence of chemical substance (yeast gene YHR026W): 0.9
The level of expressed mRNA in the presence of chemical substance/The level of expressed mRNA in the absence of chemical substance (yeast gene YHR092C): 0.9
The level of expressed mRNA in the presence of chemical substance/The level of expressed mRNA in the absence of chemical substance (yeast gene YHR094C): 1.4
The level of expressed mRNA in the presence of chemical substance/The level of expressed mRNA in the absence of chemical substance (yeast gene YHR175W): 1.3
The level of expressed mRNA in the presence of chemical substance/The level of expressed mRNA in the absence of chemical substance (yeast gene YIL006W): 0.8
The level of expressed mRNA in the presence of chemical substance/The level of expressed mRNA in the absence of chemical substance (yeast gene YIL022W): 0.8
The level of expressed mRNA in the presence of chemical substance/The level of expressed mRNA in the absence of chemical substance (yeast gene YIL056W): 1.5
The level of expressed mRNA in the presence of chemical substance/The level of expressed mRNA in the absence of chemical substance (yeast gene YIL088C): 1.2
The level of expressed mRNA in the presence of chemical substance/The level of expressed mRNA in the absence of chemical substance (yeast gene YJL034W): 1.1
The level of expressed mRNA in the presence of chemical substance/The level of expressed mRNA in the absence of chemical substance (yeast gene YJL212C): 0.6
The level of expressed mRNA in the presence of chemical substance/The level of expressed mRNA in the absence of chemical substance (yeast gene YJL219W): 1.6
The level of expressed mRNA in the presence of chemical substance/The level of expressed mRNA in the absence of chemical substance (yeast gene YJR077C): 1.0
The level of expressed mRNA in the presence of chemical substance/The level of expressed mRNA in the absence of chemical substance (yeast gene YJR106W): 1.2
The level of expressed mRNA in the presence of chemical substance/The level of expressed mRNA in the absence of chemical substance (yeast gene YJR121W): 1.1
The level of expressed mRNA in the presence of chemical substance/The level of expressed mRNA in the absence of chemical substance (yeast gene YKL016C): 1.0
The level of expressed mRNA in the presence of chemical substance/The level of expressed mRNA in the absence of chemical substance (yeast gene YKL146W): 1.0
The level of expressed mRNA in the presence of chemical substance/The level of expressed mRNA in the absence of chemical substance (yeast gene YKR039W): 0.9
The level of expressed mRNA in the presence of chemical substance/The level of expressed mRNA in the absence of chemical substance (yeast gene YKR067W): 0.8
The level of expressed mRNA in the presence of chemical substance/The level of expressed mRNA in the absence of chemical substance (yeast gene YLL028W): 1.2
The level of expressed mRNA in the presence of chemical substance/The level of expressed mRNA in the absence of chemical substance (yeast gene YLR081W): 0.7
The level of expressed mRNA in the presence of chemical substance/The level of expressed mRNA in the absence of chemical substance (yeast gene YLR295C): 0.9
The level of expressed mRNA in the presence of chemical substance/The level of expressed mRNA in the absence of chemical substance (yeast gene YLR348C): 1.1
The level of expressed mRNA in the presence of chemical substance/The level of expressed mRNA in the absence of chemical substance (yeast gene YLR378C): 0.9
The level of expressed mRNA in the presence of chemical substance/The level of expressed mRNA in the absence of chemical substance (yeast gene YMR011W): 1.3
The level of expressed mRNA in the presence of chemical substance/The level of expressed mRNA in the absence of chemical substance (yeast gene YMR162C): 0.8
The level of expressed mRNA in the presence of chemical substance/The level of expressed mRNA in the absence of chemical substance (yeast gene YMR203W): 0.8
The level of expressed mRNA in the presence of chemical substance/The level of expressed mRNA in the absence of chemical substance (yeast gene YNL055C): 1.2
The level of expressed mRNA in the presence of chemical substance/The level of expressed mRNA in the absence of chemical substance (yeast gene YNL259C): 2.6
The level of expressed mRNA in the presence of chemical substance/The level of expressed mRNA in the absence of chemical substance (yeast gene YNR072W): 1.3
The level of expressed mRNA in the presence of chemical substance/The level of expressed mRNA in the absence of chemical substance (yeast gene YOL119C): 1.4
The level of expressed mRNA in the presence of chemical substance/The level of expressed mRNA in the absence of chemical substance (yeast gene YOL156W): 0.9
The level of expressed mRNA in the presence of chemical substance/The level of expressed mRNA in the absence of chemical substance (yeast gene YOL163W): 0.8
The level of expressed mRNA in the presence of chemical substance/The level of expressed mRNA in the absence of chemical substance (yeast gene YOR035C): 1.6
The level of expressed mRNA in the presence of chemical substance/The level of expressed mRNA in the absence of chemical substance (yeast gene YOR130C): 1.5
The level of expressed mRNA in the presence of chemical substance/The level of expressed mRNA in the absence of chemical substance (yeast gene YOR153W): 2.5
The level of expressed mRNA in the presence of chemical substance/The level of expressed mRNA in the absence of chemical substance (yeast gene YOR273C): 3.2
The level of expressed mRNA in the presence of chemical substance/The level of expressed mRNA in the absence of chemical substance (yeast gene YOR316C): 0.8
The level of expressed mRNA in the presence of chemical substance/The level of expressed mRNA in the absence of chemical substance (yeast gene YOR332W): 1.3
The level of expressed mRNA in the presence of chemical substance/The level of expressed mRNA in the absence of chemical substance (yeast gene YOR348C): 0.9
The level of expressed mRNA in the presence of chemical substance/The level of expressed mRNA in the absence of chemical substance (yeast gene YPL036W): 0.4
The level of expressed mRNA in the presence of chemical substance/The level of expressed mRNA in the absence of chemical substance (yeast gene YPL134C): 1.3
The level of expressed mRNA in the presence of chemical substance/The level of expressed mRNA in the absence of chemical substance (yeast gene YPL271W): 1.2
The level of expressed mRNA in the presence of chemical substance/The level of expressed mRNA in the absence of chemical substance (yeast gene YPR192W): 1.6
The level of expressed mRNA in the presence of chemical substance/The level of expressed mRNA in the absence of chemical substance (yeast gene YPR194C): 1.0
